Assay results reported in the supplement of paper PMC9912026.

System: A375_NRAS_Q61K_DOXind
Test: pERK immunofluorescence relative to uninduced (no doxycycline), no-drug control; higher = more ERK phosphorylation (less pathway inhibition)
Conditions: drug treatment time 24 h, doxycycline pre-induction time 24 h, vemurafenib background 0 µM
Protocol: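 pERK was measured by immunofluorescence with FLAG-negative cells excluded. Averages of 2 technical replicates.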

CCCS(=O)(=O)Nc1ccc(F)c(C(=O)c2c[nH]c3ncc(-c4ccc(Cl)cc4)cc23)c1F [Vemurafenib] + O=C(c1ccc(F)c(F)c1Nc1ccc(I)cc1F)N1CC(O)([C@@H]2CCCCN2)C1 [Cobimetinib]
pERK immunofluorescence
Conditions | drug B concentration 0 µM | drug B concentration 0.0001 µM | drug B concentration 0.0003162 µM | drug B concentration 0.001 µM | drug B concentration 0.00316228 µM | drug B concentration 0.01 µM | drug B concentration 0.0316228 µM | drug B concentration 0.1 µM | drug B concentration 0.316228 µM | drug B concentration 1 µM
drug A concentration 0 µM, doxycycline 0 ng/mL | – | 0.771 | 0.877 | 0.692 | 0.269 | 0.0826 | 0.0415 | 0.0295 | 0.0213 | 0.0214
drug A concentration 0 µM, doxycycline 1000 ng/mL | – | 1.26 | 1.36 | 1.23 | 1.11 | 1.03 | 0.769 | 0.29 | 0.0675 | 0.0264
drug A concentration 0.000316 µM, doxycycline 0 ng/mL | 0.894 | 0.847 | 0.89 | 0.663 | 0.253 | 0.078 | 0.0417 | 0.0283 | 0.023 | 0.0216
drug A concentration 0.000316 µM, doxycycline 1000 ng/mL | 1.23 | 1.24 | 1.3 | 1.22 | 1.11 | 1.06 | 0.763 | 0.322 | 0.073 | 0.0271
drug A concentration 0.001 µM, doxycycline 0 ng/mL | 0.854 | 0.807 | 0.827 | 0.652 | 0.277 | 0.0707 | 0.0373 | 0.0262 | 0.0201 | 0.0201
drug A concentration 0.001 µM, doxycycline 1000 ng/mL | 1.15 | 1.21 | 1.26 | 1.29 | 1.15 | 1.08 | 0.761 | 0.326 | 0.0778 | 0.0269
drug A concentration 0.00316 µM, doxycycline 0 ng/mL | 0.761 | 0.816 | 0.887 | 0.555 | 0.229 | 0.0664 | 0.0382 | 0.0255 | 0.0206 | 0.0196
drug A concentration 0.00316 µM, doxycycline 1000 ng/mL | 1.12 | 1.17 | 1.31 | 1.25 | 1.13 | 1.01 | 0.763 | 0.311 | 0.0715 | 0.0264
drug A concentration 0.01 µM, doxycycline 0 ng/mL | 0.697 | 0.719 | 0.752 | 0.525 | 0.207 | 0.0636 | 0.0366 | 0.0258 | 0.0201 | 0.0203
drug A concentration 0.01 µM, doxycycline 1000 ng/mL | 1.16 | 1.21 | 1.28 | 1.31 | 1.21 | 1.02 | 0.741 | 0.32 | 0.0751 | 0.0284
drug A concentration 0.0316 µM, doxycycline 0 ng/mL | 0.485 | 0.57 | 0.578 | 0.357 | 0.142 | 0.0532 | – | – | – | –
drug A concentration 0.0316 µM, doxycycline 1000 ng/mL | 1.08 | 1.11 | 1.22 | 1.27 | 1.05 | – | – | – | – | –
